{"source": "patent US20240390295A1", "about": "“METHODS FOR TREATING DEPRESSION” (JANSSEN PHARMACEUTICA NV, priority 2020, published 2024)", "tested_on": "adult patients (aged 18-64 years) with TRD", "assay": "Maximum time to onset of clinician-reported adverse events by AE week 1/week 4 occurrence (Tables 5-16; modal dose 56, modal dose 84, Total)", "type": "in vivo, human", "conditions": "for Dissociation (clinician), % >60 m / Dizziness, % >60 m / Sedation, % >60 m / Vertigo, % >60 m: Based on Week 4, incidence Twice; for Sedation(clinician-reported), n (%) / Vertigo(clinician-reported), n (%) / Dissociation(clinician-reported), n (%) / Blood pressure increased (clinician-reported), n (%) / Dizziness(clinician-reported), n (%): listed as ESK", "description": "Patients were monitored for >90 minutes after ESK administration at each treatment session, after which time they could leave the clinical site at the clinician's discretion. AEs were monitored and reported, and safety assessments, including clinical laboratory tests and physical examinations, were conducted throughout the study. Clinician-reported AEs were categorized as mild, moderate, or severe based on clinical judgement (Table 1).\nSince flexible dosing (ESK 56 or 84 mg) was permitted in the studies and an individual patient's doses could change within dosing timeframes, patients were stratified by modal dose during the respective periods.\nThe time to onset of the adverse events experienced by patients in Example 2 was analyzed. Tables 5-11 include the summary of specific adverse events by their respective categorized maximum time to Onset (i) across sessions 3-8 during Induction Phase by AE week 1 occurrence (Table 5), (ii) during Optimization Phase by AE week 1 occurrence (Table 6), (iii) during Optimization Phase by AE week 4 occurrence (Table 7), (iv) during Month 3-6 of Maintenance Phase by AE week 1 occurrence (Table 8), (v) Month 3-6 of Maintenance Phase by AE week 4 occurrence (Table 9), (vi) Month 6-12 of Maintenance Phase by AE week 1 occurrence (Table 10), and (vii) during Month 6-12 of Maintenance Phase by AE week 4 (Table 11).\nTables 12-16 include the incidences of clinician-reported blood pressure (Table 12), clinician-reported dissociation (Table 13), dizziness (Table 14), sedation (Table 15), and vertigo (Table 16) spanning week 1 to month 12 using the data of Example 2.", "key": {"[1]": {"conditions": "Induction Phase sessions 3-8, AE week 1 None"}, "[2]": {"conditions": "Induction Phase sessions 3-8, AE week 1 Once"}, "[3]": {"conditions": "Induction Phase sessions 3-8, AE week 1 Twice"}, "[4]": {"conditions": "Month 3-6 Maintenance, AE week 1 None, onset missing"}, "[5]": {"conditions": "Month 3-6 Maintenance, AE week 4 None, onset 31-60 minutes"}, "[6]": {"conditions": "Month 3-6 Maintenance, AE week 4 None, onset missing"}, "[7]": {"conditions": "Month 6-12 Maintenance, AE week 4 Once"}, "[8]": {"conditions": "Month 6-12 Maintenance, AE week 4 Twice, onset 31-60 minutes"}, "[9]": {"conditions": "Optimization Phase, AE week 1 Once"}, "[10]": {"conditions": "Optimization Phase, AE week 4 None"}}, "note": "“And” between values parts separate entries of the source, which are not always exact repeats. Identical values can stand only once."}
{"smiles": "CN[C@]1(c2ccccc2Cl)CCCCC1=O", "note": "[esketamine, (S)-2-(2-chlorophenyl)-2-(methylamino)cyclohexanone]", "values": [{"measurement": "Dissociation (clinician), % >60 m", "setting": "Month 3-6", "value": 3, "unit": "%"}, {"measurement": "Dizziness, % >60 m", "setting": "Month 3-6", "value": 3, "unit": "%"}, {"measurement": "Sedation, % >60 m", "setting": "Month 3-6", "value": 0, "unit": "%"}, {"measurement": "Vertigo, % >60 m", "setting": "Month 3-6", "value": 9.5, "unit": "%"}, {"measurement": "Dissociation (clinician), % >60 m", "setting": "Month 6-12", "value": 0, "unit": "%"}, {"measurement": "Dizziness, % >60 m", "setting": "Month 6-12", "value": 5.9, "unit": "%"}, {"measurement": "Sedation, % >60 m", "setting": "Month 6-12", "value": 0, "unit": "%"}, {"measurement": "Vertigo, % >60 m", "setting": "Month 6-12", "value": 0, "unit": "%"}, {"measurement": "Blood pressure increased: time to onset 31-60 minutes", "setting": "[1]", "value": "10 (90.9%) and 10 (100%) and 20 (95.2%)"}, {"measurement": "Sedation: time to onset 31-60 minutes", "setting": "[1]", "value": "2 (22.2%) and 2 (20.0%) and 4 (21.1%)"}, {"measurement": "Sedation: time to onset >90 minutes", "setting": "[1]", "value": "1 (11.1%) and 1 (10.0%) and 2 (10.5%)"}, {"measurement": "Vertigo: time to onset 61-90 minutes", "setting": "[1]", "value": "1 (3.3%) and 1 (6.7%) and 2 (4.4%)"}, {"measurement": "Dizziness: time to onset 31-60 minutes", "setting": "[2]", "value": "4 (12.1%) and 4 (17.4%) and 8 (14.3%)"}, {"measurement": "Dizziness: time to onset 61-90 minutes", "setting": "[2]", "value": "1 (3.0%) and 1 (4.3%) and 2 (3.6%)"}, {"measurement": "Vertigo: time to onset >90 minutes", "setting": "[2]", "value": "1 (9.1%) and 1 (5.6%) and 2 (6.9%)"}, {"measurement": "Dissociation: time to onset 61-90 minutes", "setting": "[3]", "value": "2 (5.6%) and 2 (7.1%) and 4 (6.3%)"}, {"measurement": "Dizziness: time to onset >90 minutes", "setting": "[3]", "value": "1 (2.8%) and 1 (2.5%) and 2 (2.6%)"}, {"measurement": "Sedation(clinician-reported), n (%)", "setting": "Month 3-6 Maintenance, AE week 1 None, onset 31-60 minutes", "value": "1 (20.0%) and 1 (8.3%) and 2 (11.8%)"}, {"measurement": "Vertigo(clinician-reported), n (%)", "setting": "Month 3-6 Maintenance, AE week 1 None, onset 61-90 minutes", "value": "1 (10.0%) and 1 (12.5%) and 2 (11.1%)"}, {"measurement": "Dissociation(clinician-reported), n (%)", "setting": "[4]", "value": "1 (5.9%) and 1 (5.3%) and 2 (5.6%)"}, {"measurement": "Sedation(clinician-reported), n (%)", "setting": "[4]", "value": "1 (20.0%) and 1 (8.3%) and 2 (11.8%)"}, {"measurement": "Blood pressure increased (clinician-reported), n (%)", "setting": "Month 3-6 Maintenance, AE week 1 Once", "value": "2 (2.0%) and 2 (1.9%) and 4 (2.0%)"}, {"measurement": "Blood pressure increased (clinician-reported), n (%)", "setting": "Month 3-6 Maintenance, AE week 1 Once, onset 31-60 minutes", "value": "2 (100%) and 4 (100%)"}, {"measurement": "Blood pressure increased (clinician-reported), n (%)", "setting": "Month 3-6 Maintenance, AE week 1 Twice", "value": "2 (2.0%) and 2 (1.9%) and 4 (2.0%)"}, {"measurement": "Vertigo(clinician-reported), n (%)", "setting": "Month 3-6 Maintenance, AE week 1 Twice, onset 0-30 minutes", "value": "11 (91.7%) and 11 (84.6%) and 22 (88.0%)"}, {"measurement": "Dissociation(clinician-reported), n (%)", "setting": "[5]", "value": "5 (27.8%) and 5 (25.0%) and 10 (26.3%)"}, {"measurement": "Sedation(clinician-reported), n (%)", "setting": "[5]", "value": "1 (20.0%) and 1 (11.1%) and 2 (14.3%)"}, {"measurement": "Vertigo(clinician-reported), n (%)", "setting": "Month 3-6 Maintenance, AE week 4 None, onset 61-90 minutes", "value": "1 (8.3%) and 1 (10.0%) and 2 (9.1%)"}, {"measurement": "Dissociation(clinician-reported), n (%)", "setting": "[6]", "value": "1 (5.6%) and 1 (5.0%) and 2 (5.3%)"}, {"measurement": "Dizziness(clinician-reported), n (%)", "setting": "[6]", "value": "2 (6.9%) and 2 (11.1%) and 4 (8.5%)"}, {"measurement": "Vertigo(clinician-reported), n (%)", "setting": "Month 3-6 Maintenance, AE week 4 Once", "value": "3 (3.0%) and 3 (2.9%) and 6 (3.0%)"}, {"measurement": "Vertigo(clinician-reported), n (%)", "setting": "Month 3-6 Maintenance, AE week 4 Once, onset 0-30 minutes", "value": "3 (100%) and 6 (100%)"}, {"measurement": "Dizziness(clinician-reported), n (%)", "setting": "Month 3-6 Maintenance, AE week 4 Once, onset 31-60 minutes", "value": "1 (14.3%) and 1 (16.7%) and 2 (15.4%)"}, {"measurement": "Vertigo(clinician-reported), n (%)", "setting": "Month 3-6 Maintenance, AE week 4 Twice, onset 61-90 minutes", "value": "1 (12.5%) and 1 (7.7%) and 2 (9.5%)"}, {"measurement": "Sedation(clinician-reported), n (%)", "setting": "Month 6-12 Maintenance, AE week 1 None", "value": "5 (7.5%) and 5 (8.3%) and 10 (7.9%)"}, {"measurement": "Sedation(clinician-reported), n (%)", "setting": "Month 6-12 Maintenance, AE week 1 None, onset missing", "value": "1 (20.0%) and 2 (20.0%)"}, {"measurement": "Dizziness(clinician-reported), n (%)", "setting": "Month 6-12 Maintenance, AE week 1 Twice", "value": "7 (10.4%) and 7 (11.7%) and 14 (11.0%)"}, {"measurement": "Vertigo(clinician-reported), n (%)", "setting": "Month 6-12 Maintenance, AE week 1 Twice, onset 31-60 minutes", "value": "1 (10.0%) and 1 (16.7%) and 2 (12.5%)"}, {"measurement": "Sedation(clinician-reported), n (%)", "setting": "Month 6-12 Maintenance, AE week 4 None", "value": "4 (6.0%) and 4 (6.7%) and 8 (6.3%)"}, {"measurement": "Vertigo(clinician-reported), n (%)", "setting": "Month 6-12 Maintenance, AE week 4 None, onset 31-60 minutes", "value": "1 (14.3%) and 1 (25.0%) and 2 (18.2%)"}, {"measurement": "Sedation(clinician-reported), n (%)", "setting": "Month 6-12 Maintenance, AE week 4 None, onset missing", "value": "1 (25.0%) and 2 (25.0%)"}, {"measurement": "Sedation(clinician-reported), n (%)", "setting": "[7]", "value": "2 (3.0%) and 2 (3.3%) and 4 (3.1%)"}, {"measurement": "Vertigo(clinician-reported), n (%)", "setting": "[7]", "value": "2 (3.0%) and 2 (3.3%) and 4 (3.1%)"}, {"measurement": "Vertigo(clinician-reported), n (%)", "setting": "Month 6-12 Maintenance, AE week 4 Once, onset 0-30 minutes", "value": "1 (50.0%) and 2 (50.0%)"}, {"measurement": "Dissociation(clinician-reported), n (%)", "setting": "Month 6-12 Maintenance, AE week 4 Once, onset 31-60 minutes", "value": "1 (100%) and 1 (12.5%) and 2 (22.2%)"}, {"measurement": "Blood pressure increased (clinician-reported), n (%)", "setting": "Month 6-12 Maintenance, AE week 4 Twice", "value": "1 (1.5%) and 1 (1.7%) and 2 (1.6%)"}, {"measurement": "Blood pressure increased (clinician-reported), n (%)", "setting": "[8]", "value": "1 (100%) and 2 (100%)"}, {"measurement": "Vertigo(clinician-reported), n (%)", "setting": "[8]", "value": "1 (11.1%) and 1 (16.7%) and 2 (13.3%)"}, {"measurement": "Dizziness: time to onset >90 minutes", "setting": "[9]", "value": "1 (5.6%) and 1 (6.7%) and 2 (6.1%)"}, {"measurement": "Sedation: patients with AE", "setting": "[9]", "value": "2 (1.5%) and 2 (1.2%) and 4 (1.3%)"}, {"measurement": "Vertigo: time to onset 31-60 minutes", "setting": "[9]", "value": "1 (12.5%) and 1 (9.1%) and 2 (10.5%)"}, {"measurement": "Vertigo: time to onset >90 minutes", "setting": "[9]", "value": "1 (12.5%) and 1 (9.1%) and 2 (10.5%)"}, {"measurement": "Blood pressure increased: patients with AE", "setting": "[10]", "value": "9 (6.8%) and 9 (5.4%) and 18 (6.0%)"}, {"measurement": "Dissociation: patients with AE", "setting": "[10]", "value": "23 (17.4%) and 23 (13.8%) and 46 (15.4%)"}, {"measurement": "Sedation: patients with AE", "setting": "[10]", "value": "5 (3.8%) and 5 (3.0%) and 10 (3.3%)"}, {"measurement": "Vertigo: time to onset 61-90 minutes", "setting": "[10]", "value": "1 (10.0%) and 1 (6.7%) and 2 (8.0%)"}, {"measurement": "Dizziness: time to onset 31-60 minutes", "setting": "Optimization Phase, AE week 4 Once", "value": "1 (9.1%) and 1 (6.3%) and 2 (7.4%)"}, {"measurement": "Dizziness: time to onset 31-60 minutes", "setting": "Optimization Phase, AE week 4 Twice", "value": "1 (3.7%) and 1 (3.8%) and 2 (3.8%)"}, {"measurement": "time at which adverse events (particularly dissociation, increase in blood pressure) generally peak", "setting": "human, in vivo, other: intranasal", "value": "~40", "unit": "min"}]}
